According to patent publication US12325676B2, “Cationic lipid compound and composition for delivery of nucleic acids and use thereof” (Shenzhen Rhegen Biotechnology Co., Ltd., priority 2022, dated 2025):

Assay: Particle size, PDI and zeta potential of mRNA-loaded lipid nanoparticles (Malvern Zetasizer nano)
Type: physicochemical
Protocol: Luciferase mRNA was diluted in 10-100 mM citrate buffer at pH 4.0; the lipid components (cationic lipids shown in the present disclosure: DSPC:cholesterol:PEG lipids (DMG-PEG2000)) were dissolved in ethanol at a molar ratio of 50:10:38.5:1.5.
3 mL of a mRNA buffer and 1 mL of a lipid solution were loaded into two 5 mL syringes respectively, and the syringes were installed on a microfluidic syringe pump. Chips were connected to the syringes and syringe pump flow rate was set. Clicking the start button of the syringe pump caused injection into the chip at a flow rate ratio of 3:1. Under observation of the color of the product at the exit of the chip, after discarding the first 5 milky white droplets (about 100 μL), the back-end sample was collected into an EP tube. The collected product was placed in a dialysis bag and dialyzed for 6 h (MWCO: 100 KDa) in 10 mM PBS (pH 7.4) intervals. Subsequently, after being concentrated by ultrafiltration to the desired concentration, the lipid nanoparticles were filtered through a 0.22 μm sterile filter and then stored at 4° C.
Tests were performed to calculate the encapsulation rate of the products according to the instructions of Ribogreen kit. Particle size and polydispersity index (PDI) detection as well as zeta potential analysis was performed on a Malvern Zetasizer nano instrument using standard assays.

[1] = Table 1, Luciferase mRNA LNP, cationic lipid:DSPC:cholesterol:DMG-PEG2000 50:10:38.5:1.5 molar
[2] = Table 3 batch, luciferase mRNA LNP prepared as Example 20

CCCCCCCCSCC(C)C(=O)OCCCCCN(CCO)CCCCCCCC(=O)OC(CCCCCCCC)CCCCCCCC (centres unmarked) [Compound 35]
PDI [1]: 0.11 | Particle size (nm) [1]: 104.5 nm | Zeta potential (mV) [1]: −2.10 mV | PDI [2]: 0.14 | Particle size (nm) [2]: 80.4 nm
